According to US6642355B2, “Endothelin-antagonizing peptide” (priority 1991, dated 2003):
Read-outs that look alike come from different tables or passages of the source.

Key:
endothelin-3 = assay: Effect against airway contraction due to endothelin in anesthetized guinea pigs; format: in vivo; details: guinea pig; for Rate of inhibition (%) of airway contraction, earlier phase 30 seconds: 30 seconds after endothelin-3; for Rate of inhibition (%) of airway contraction, later phase 3 minutes: 3 minutes after endothelin-3
Procedure: The in vivo effect of the compounds according to the present invention against airway contraction was evaluated according to a slightly modified version of the method of C. Touvay et al. described in European Journal of Pharmacology, 176, 23-33, 1990. That is, male Hartley guinea pigs weighing 350 to 550 grams each which had been previously β-blocked by intravenous injection of propranolol (3 mg/kg) were anesthetized, bronchial cannula were inserted therein and fixed, and connected to an artificial respirator. Next, spontaneous breathing was stopped with 10 mg/kg Gallamine triethiodide (product of sigma Co.), administered intravenously after which artificial respiration was initiated at a determined rate. A respiration volume measuring device was connected to the bronchial cannula bypass, and the change in the air flow was measured as an indication of airway contraction. Endothelin-3 (1.5 μmol/l; product of Peptide Institute, Inc.) was intravenously injected at a dose of 0.1 ml per 100 g body weight. Airway contraction (air flow increase) was observed immediately after injection, and was followed by a diphasic airway contraction reaction with an early and late phase which peaked at 30 seconds and 3 minutes, respectively.
Rate of inhibition (%)=(1−b/a)×100 a: Airway contraction without injection of Compound (I-1) (control) b: Airway contraction with injection of Compound (I-1)

endothelin receptor [1] = molecular target: T1, endothelin receptor (Bos taurus, UniProt P21450); assay: Endothelin receptor-antagonizing activity: 125I-endothelin-1 binding to bovine lung membrane fraction with […] Compound (I-1) added
T1 construct: the suspension was used as the membrane fraction liquid; from tissue
T1 sequence (P21450 21-427): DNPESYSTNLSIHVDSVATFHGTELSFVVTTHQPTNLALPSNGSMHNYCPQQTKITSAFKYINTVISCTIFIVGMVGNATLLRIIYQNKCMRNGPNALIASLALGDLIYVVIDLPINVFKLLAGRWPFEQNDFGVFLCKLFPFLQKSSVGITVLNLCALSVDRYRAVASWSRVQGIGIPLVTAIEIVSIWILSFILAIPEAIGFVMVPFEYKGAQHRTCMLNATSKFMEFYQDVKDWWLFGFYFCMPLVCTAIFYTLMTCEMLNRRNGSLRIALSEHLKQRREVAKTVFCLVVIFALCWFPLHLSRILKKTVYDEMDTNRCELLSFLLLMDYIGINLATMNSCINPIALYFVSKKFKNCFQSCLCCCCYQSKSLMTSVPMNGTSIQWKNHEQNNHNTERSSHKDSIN
Procedure: Bovine lung tissue was homogenized at 4° C. using POLYTRON (type PT10/35, manufactured by Kinematica GmbH Co.) in a buffer solution A (pH 8.3) comprising 1 mM NaHCO3, 5 mM ethylenediaminetetraacetic acid, 5 μg/ml leupeptin, 5 μg/ml pepstatin A and 40 μM phenylmethylsulfonyl fluoride.
The inhibition rate against endothelin receptor binding activity was calculated according to the following equation.
Inhibition rate=(C−A/C−B)=100 (%)

endothelin receptor [2] = molecular target: T2, endothelin receptor (Bos taurus, UniProt P28088); assay: Endothelin receptor-antagonizing effect: 125I-endothelin-1 binding to bovine cerebellar tissue membrane fraction; details: bovine cerebellar tissue membrane fraction
T2 construct: from tissue; host or cells: bovine cerebellar membrane fraction
T2 sequence (P28088 27-441): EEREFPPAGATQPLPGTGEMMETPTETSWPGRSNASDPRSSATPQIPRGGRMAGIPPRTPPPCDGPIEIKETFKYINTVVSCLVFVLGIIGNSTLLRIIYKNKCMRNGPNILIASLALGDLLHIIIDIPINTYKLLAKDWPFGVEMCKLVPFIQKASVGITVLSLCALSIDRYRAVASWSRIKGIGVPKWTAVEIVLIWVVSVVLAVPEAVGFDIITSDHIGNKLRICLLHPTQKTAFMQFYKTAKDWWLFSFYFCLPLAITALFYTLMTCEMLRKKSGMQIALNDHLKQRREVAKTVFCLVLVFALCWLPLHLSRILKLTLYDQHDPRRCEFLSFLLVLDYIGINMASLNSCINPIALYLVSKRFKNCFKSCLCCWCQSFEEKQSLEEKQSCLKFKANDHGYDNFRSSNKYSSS

[3] = molecular target: endothelin receptor of bovine cerebellar tissue (membrane fraction) (bovine); assay: 125I-endothelin-1 displacement, bovine cerebellar membrane fraction
[4] = molecular target: endothelin receptor of bovine cerebellar tissue (membrane fraction) (bovine); assay: as above; remark: listed apart in the source
[5] = molecular target: endothelin receptor of bovine lung tissue (membrane fraction) (bovine); assay: 125I-endothelin-1 displacement, bovine lung membrane fraction with 1.5 ug/ml Compound (I-1) added

Molecule: C[C@@H]1NC(=O)[C@H]([C@@H](C)O)NC(=O)CNC(=O)[C@H](Cc2c[nH]cn2)NC(=O)[C@H](Cc2c[nH]c3ccccc23)NC(=O)[C@H](CC(N)=O)NC(=O)CNC(=O)C[C@@H](C(=O)N[C@@H](Cc2c[nH]c3ccccc23)C(=O)N[C@@H](Cc2ccccc2)C(=O)N[C@@H](Cc2ccccc2)C(=O)N[C@@H](CC(N)=O)C(=O)N[C@@H](Cc2ccc(O)cc2)C(=O)N[C@@H](Cc2ccc(O)cc2)C(=O)N[C@@H](Cc2c[nH]c3ccccc23)C(=O)O)NC(=O)[C@@H]2CCCN2C1=O [Compound I-1]
- Rate of inhibition (%) of airway contraction, earlier phase 30 seconds (endothelin-3; 0.1 mg/kg i.v.): 12.5%
- Rate of inhibition (%) of airway contraction, later phase 3 minutes (endothelin-3; 0.1 mg/kg i.v.): 44.0%
- Rate of inhibition (%) of airway contraction, earlier phase 30 seconds (endothelin-3; 0.3 mg/kg i.v.): 46.0%
- Rate of inhibition (%) of airway contraction, later phase 3 minutes (endothelin-3; 0.3 mg/kg i.v.): 52.7%
- Rate of inhibition (%) of airway contraction, earlier phase 30 seconds (endothelin-3; 1.0 mg/kg i.v.): 91.8%
- Rate of inhibition (%) of airway contraction, later phase 3 minutes (endothelin-3; 1.0 mg/kg i.v.): 78.2%

Molecule: C[C@@H]1NC(=O)[C@H]([C@@H](C)O)NC(=O)CNC(=O)[C@H](Cc2c[nH]cn2)NC(=O)[C@H](Cc2c[nH]c3ccccc23)NC(=O)[C@H](CC(N)=O)NC(=O)CNC(=O)C[C@@H](C(=O)N[C@@H](Cc2c[nH]c3ccccc23)C(=O)N[C@@H](Cc2ccccc2)C(=O)N[C@@H](Cc2ccccc2)C(=O)N[C@@H](CC(N)=O)C(=O)N[C@@H](Cc2ccc(O)cc2)C(=O)N[C@@H](Cc2ccc(O)cc2)C(=O)N[C@@H](Cc2c[nH]c3ccccc23)C(=O)OCc2ccccc2)NC(=O)[C@@H]2CCCN2C1=O [Compound I-47]
- IC50 (endothelin receptor [1]): > 470 nM
- IC50 (endothelin receptor [2]): 140 nM

B1: Compound (I-3) (peptide)
chain: GNWHGTSPDWFFNYYW
modifications: not checked
- IC50 [3]: 5 nM

B2: Compound (I-45) (peptide)
peptide: GNWHGTAPDWFFNYY
modifications: lactam Gly 1 N-terminus to Asp 9 side chain; C-terminal carboxyl of Tyr 15 amidated with Trn, 2-(3-indolyl)ethylamine
- IC50 [4]: 50 nM
- IC50 [5]: 300 nM
